In brackets after ≈: the same amount, converted by molar mass. Read-outs that look alike come from different tables or passages of the source. Starred links: 1 amine or outer side, 2 acyl side, 3 side chain; linkers in the order of their positions; H or OH if unused. Positions of bridges follow the written chain, without caps; N, C: chain ends. Non-standard residues stand in square brackets, D forms with d. Residues, ends and D or L forms follow the SMILES beside them. Chains are numbered I, II in the order given. Actinocin(9to1) = Cc1c2oc3c(C)ccc(C(=O)[*:1])c3nc-2c(C(=O)[*:2])c(N)c1=O; NMeV = CN[C@H](C(=O)O)C(C)C; Sar = CNCC(=O)O
Columns and labels:
[1] = target: tyrosinase; conditions: cited from earlier work; for IC50: read-out: Antityrosinase IC50, previously reported
[2] = target: T1, mushroom tyrosinase (Agaricus bisporus, UniProt C7FF04); assay: Diphenolase tyrosinase assay (enzymatic rate, L-dopa as substrate); type: biochemical; conditions: for Tyrosinase activity at 200 µg/mL (fold increase): rate over 30 min at 37 °C versus vehicle control; for Tyrosinase stimulation, fold increase: enzyme rate of the sample divided by enzyme rate of the vehicle control
T1 construct: purchased Sigma-Aldrich Co. LLC, St. Louis, MO, USA

[3] = target: T1, mushroom tyrosinase; assay: Tyrosinase enzyme kinetics: change in L-dopa kinetics, type of inhibition; type: biochemical; conditions: for VMAX, Michaelis-Menten plot data of the inhibitors (Figure S 3): L-dopa with inhibitor; for Type of inhibition: enzyme kinetic studies; for Change in L-dopa kinetics, Vmax: maximum enzyme velocity
[4] = target: T2, tyrosinase (Agaricus bisporus, UniProt C7FF04); assay: Tyrosinase enzyme kinetics in the absence of the substrate (subversive substrate properties); type: biochemical, mushroom; conditions: for Vmax (substrate properties): Table 3
T2 construct: purchased Sigma-Aldrich Co. LLC, St. Louis, MO, USA

[5] = test system: human melanoma cells (UCT-Mel1); assay: Antiproliferative assay (Presto blue, 72 h); type: cell-based; conditions: for IC50 / EC50: Homo sapiens; for EC50 / HillSlope, sigmoidal dose-response best-fit (Table S 10) / LogEC50, sigmoidal dose-response best-fit (Table S 10): variable slope; for EC50: bottom 0, top 100, read-out: EC50, sigmoidal dose-response best-fit (Table S 10)
[6] = test system: human melanocytes (UCT-Mel-1); assay: Masson Fontana assay (melanin produced); type: cell-based; conditions: for Increase in melanin produced: 265 µM (aspalathin 119.82 µg/mL, catechin 76.92 µg/mL); for Mean Diff., Negative vs sample, melanin produced (Table S 11): Dunnett's multiple comparison versus untreated melanocytes
Protocol: The cells were cultured as previously described. The silver nitrate solution was prepared, as described by Kwon-Chung et al.[34]. The cells were fixed and treated with the AgNO3 working solution for 40 min at 56 °C (in the dark). Following incubation, the cells were treated with sodium thiosulphate (52.63 mg/mL) for 1 min and rinsed with water. The cells were counterstained using haematoxylin. The washed cells were dehydrated and fixed on microscope slides. Light microscopy images were taken using a Zeiss Primo Vert light microscope and analysed with ImageJ[34].

[7] = Tyrosinase stimulation EC50 ± SD, relative EC50, 50% of maximal response
[8] = Tyrosinase stimulation EC50 ± SD, relative EC50, value in brackets
[9] = compound as substrate, absence of L-dopa
[10] = value in brackets, read-out: Antiproliferative IC50 (converted)

T1 sequence (C7FF04 1-392 limits assumed): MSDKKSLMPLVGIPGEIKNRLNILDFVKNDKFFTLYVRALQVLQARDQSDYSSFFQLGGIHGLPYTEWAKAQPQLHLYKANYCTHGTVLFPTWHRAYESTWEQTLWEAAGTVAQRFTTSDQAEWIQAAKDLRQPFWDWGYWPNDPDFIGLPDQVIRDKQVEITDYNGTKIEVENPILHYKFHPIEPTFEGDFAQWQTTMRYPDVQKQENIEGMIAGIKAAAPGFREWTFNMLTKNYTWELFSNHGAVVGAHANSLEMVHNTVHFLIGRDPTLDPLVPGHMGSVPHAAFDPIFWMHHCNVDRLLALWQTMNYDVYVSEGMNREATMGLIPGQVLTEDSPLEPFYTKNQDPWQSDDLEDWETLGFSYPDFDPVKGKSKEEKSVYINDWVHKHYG
T2 sequence (C7FF04 1-392 limits assumed): as above

Oc1ccc(O)cc1 [hydroquinone]
IC50 [1]: 19.8 ± 1.05 µM

O=C(/C=C/c1ccc(O)c(O)c1)O[C@H](Cc1ccc(O)c(O)c1)C(=O)O [Rosmarinic acid (12), rosmarinic acid]
IC50 [2]: 7.33 ± 3.33 µM
VMAX, Michaelis-Menten plot data of the inhibitors (Figure S 3) [3]: 19.72 ± 1.01 µmol/min
Type of inhibition [3]: competitive inhibition
IC50 [1]: 4 µM

O=c1c(O[C@@H]2O[C@H](CO)[C@@H](O)[C@H](O)[C@H]2O)c(-c2ccc(O)c(O)c2)oc2cc(O)cc(O)c12 [Isoquercitrin (7), isoquercitrin]
IC50 [2]: > 646 µM
Type of inhibition [3]: competitive inhibition

O=C(CCc1ccc(O)c(O)c1)c1c(O)cc(O)c(C2OC(CO)C(O)C(O)C2O)c1O (stereo not drawn) [Aspalathin (1), aspalathin]
Tyrosinase activity at 200 µg/mL (fold increase) [2]: 1.11 fold increase
EC50 [2, 7]: 265 µM
EC50 [2, 8]: 265 µM
Tyrosinase stimulation, fold increase [2]: 1.10 fold
Change in L-dopa kinetics, Vmax [3]: 68.73 ± 3.47 µM/min
Substrate catalytic efficiency, times lower than native substrate [4]: 3–4 times
Vmax (substrate properties) [4, 9]: 68.7 (± 3.5) mOD/min
IC50 ([5]; 72 h, concentration where 50% of the cells are viable, 72 h, read-out: Antiproliferative IC50 ± standard deviation): > 200 µg/mL
IC50 [5, 10]: 482 µM
EC50 [5]: 218 µg/mL (≈ 481 µM)
Antiproliferative IC50 ± standard deviation ([5]; concentration where 50% of the cells are viable, 72 h): 217.75 ± 1.23 µg/mL
HillSlope, sigmoidal dose-response best-fit (Table S 10) [5]: -5.86
LogEC50, sigmoidal dose-response best-fit (Table S 10) [5]: 2.34
Increase in melanin produced ([6]; listed as Aspalathin): approximately 4.5%
Increase in melanin produced ([6]; listed as aspalathin): 4.5%
Mean Diff., Negative vs sample, melanin produced (Table S 11) [6]: -8.382

O=c1cc(-c2ccc(O)cc2)oc2c([C@@H]3O[C@H](CO)[C@@H](O)[C@H](O)[C@H]3O)c(O)cc(O)c12 [Vitexin (15), vitexin]
IC50 [2]: > 694 µM

O=C(O)/C=C/c1ccccc1 [Cinnamic acid (4), cinnamic acid]
IC50 [2]: 943.6 ± 8.1 µM
Tyrosinase inhibitory activity in words [2]: Moderate inhibitory activity
VMAX, Michaelis-Menten plot data of the inhibitors (Figure S 3) [3]: 16.82 ± 0.37 µmol/min
Type of inhibition [3]: competitive inhibition
Change in L-dopa kinetics, Vmax [3]: 16.82 ± 0.37 µM/min

O=C(O)c1ccc(O)cc1 [4-Hydroxybenzoic acid (6), 4-hydroxy benzoic acid]
IC50 [2]: 1868 ± 9.34 µM
VMAX, Michaelis-Menten plot data of the inhibitors (Figure S 3) [3]: 35.00 ± 1.84 µmol/min
Change in L-dopa kinetics, Vmax [3]: 35.00 ± 1.84 µM/min

Cc1c2oc3c(C)ccc(C(=O)N[C@@H]4C(=O)N[C@H](C(C)C)C(=O)N5CCC[C@H]5C(=O)N(C)CC(=O)N(C)[C@@H](C(C)C)C(=O)O[C@@H]4C)c3nc-2c(C(=O)N[C@@H]2C(=O)N[C@H](C(C)C)C(=O)N3CCC[C@H]3C(=O)N(C)CC(=O)N(C)[C@@H](C(C)C)C(=O)O[C@@H]2C)c(N)c1=O [Actinomycin D, reference compound] (I: T[dV]P[Sar][NMeV] / II: T[dV]P[Sar][NMeV]; ester I:1-I:C, II:1-II:C; linker I:N-II:N via Actinocin(9to1))
IC50 ([5]; 72 h, read-out: Antiproliferative IC50 ± standard deviation): 0.039 ± 0.002 µg/mL

COc1cc(C(=O)O)cc(OC)c1O [Syringic acid (13), syringic acid]
IC50 [2]: > 1510 µM

N[C@@H](Cc1ccc(O)c(O)c1)C(=O)O [L-dopa, reference compound]
Change in L-dopa kinetics, Vmax [3]: 22.82 ± 1.07 µM/min
Vmax (substrate properties) [4, 9]: 22.8 (± 1.1) mOD/min

COc1cc(/C=C/C(=O)O)ccc1O [Ferulic acid (5), ferulic acid]
IC50 [2]: > 1500 µM

O=C(O)/C=C/c1ccc(O)c(O)c1 [Caffeic acid (2), caffeic acid]
EC50 [2, 7]: 228 µM
EC50 [2, 8]: 228 µM
Vmax (substrate properties) [4, 9]: 120.9 (± 15.5) mOD/min

Oc1ccc(/C=C/c2cc(O)cc(O)c2)cc1 [resveratrol]
Type of tyrosinase inhibition, well-known inhibitors [1]: non-competitive
IC50 [1]: 27.7 ± 1.15 µM

CCCOC(=O)c1cc(O)c(O)c(O)c1 [n-Propyl gallate (10), n-propyl gallate]
Tyrosinase inhibitory activity in words [2]: Moderate inhibitory activity
IC50 ([2]; read-out: Tyrosinase inhibition IC50 ± SD): 534.9 ± 5.09 µM
VMAX, Michaelis-Menten plot data of the inhibitors (Figure S 3) [3]: 20.56 ± 1.72 µmol/min
Type of inhibition [3]: non-competitive inhibition

Oc1cc(O)c2c(c1)O[C@H](c1ccc(O)c(O)c1)[C@@H](O)C2 [Catechin (3), (+)-catechin]
Tyrosinase activity at 200 µg/mL (fold increase) [2]: 0.41 fold increase
Tyrosinase stimulation, fold increase [2]: 0.40 fold
Tyrosinase stimulation, fold increase ([2]; listed as catechin (3)): 0.4 fold
EC50 ([2]; relative EC50, 50% of maximal response, read-out: Tyrosinase stimulation EC50 ± SD (converted)): 494 µM
EC50 ([2]; relative EC50, value in brackets, read-out: Tyrosinase stimulation EC50 ± SD (converted)): 494 µM
Change in L-dopa kinetics, Vmax [3]: 382.40 ± 7.03 µM/min
Substrate catalytic efficiency, times higher than native substrate L-dopa [4]: 4 times
VMAX, subversive substrates (Figure S 5) ([4]; absence of the substrate L-dopa): 382.4 ± 7.03 µmol/min
Vmax (absence of the substrate) ([4]; compound as substrate): 382.4 ± 7.0 µM/min
kcat (catalytic constant) ([4]; compound as substrate): 229.7 s⁻¹
Km [4, 9]: 471 µM
Vmax (substrate properties) [4, 9]: 382.4 (± 7.0) mOD/min
IC50 ([5]; concentration where 50% of the cells are viable, 72 h, read-out: Antiproliferative IC50 ± standard deviation): 166.3 ± 1.14 µg/mL
IC50 [5, 10]: 573 µM
EC50 [5]: 166 µg/mL (≈ 573 µM)
HillSlope, sigmoidal dose-response best-fit (Table S 10) [5]: -3.06
LogEC50, sigmoidal dose-response best-fit (Table S 10) [5]: 2.22
Masson Fontana % increase in melanin produced ([6]; 100 µg/mL, versus untreated cells): 5.72%
Increase in melanin produced ([6]; listed as catechin): 4.5%
Increase in melanin produced ([6]; listed as catechin (3)): approximately 4.5%
Mean Diff., Negative vs sample, melanin produced (Table S 11) [6]: -15.08

O=C(O)/C=C/c1ccc(O)cc1 [p-Coumaric acid (9), p-coumaric acid]
IC50 [2]: 153 ± 7.01 µM
Tyrosinase inhibitory activity in words [2]: Moderate inhibitory activity
VMAX, Michaelis-Menten plot data of the inhibitors (Figure S 3) [3]: 17.71 ± 0.66 µmol/min
Type of inhibition [3]: competitive inhibition
Change in L-dopa kinetics, Vmax [3]: 17.71 ± 0.66 µM/min

Reference: PMC8007633, “The effect of Aspalathus linearis (Burm.f.) R.Dahlgren and its compounds on tyrosinase and melanogenesis” (Scientific Reports, 2021)
